Structures can show the parent of a compound that is named as a salt. Where two headings read alike, the source gives them in different places. No end group written: not given here.
Experiments:
[1] = system: panel of 12 reference bacteria, comprised of 6 Gram-negative strains and 6 Gram-positive strains; assay type: cell-based; settings: 6 h
Protocol: (§1) The antibacterial activities of the chemically synthesized peptides were evaluated against a panel of bacteria consisting of 6 Gram-negative strains, including E. coli ATCC 25922 (American Type Culture Collection, Manassas, VA, USA), P. aeruginosa ATCC 27853, S. Typhimurium ATCC 14028, A. baumannii KCTC (Korean Collection for Type Cultures, Jeongeup, Korea) 23254, K. pneumoniae KCTC 1726, and E. cloacae ATCC 13047, and 6 Gram-positive strains, including S. aureus ATCC 6538, B. cereus ATCC 10876, E. faecalis ATCC 29212, S. agalactiae ATCC 27956, S. dysgalactiae ATCC 27957, and S. equi ATCC 43079. Ampicillin (Sigma-Aldrich, St. Louis, MO, USA), chloramphenicol (Sigma-Aldrich), and gentamicin sulfate (Sigma-Aldrich) were used as controls for antibacterial activity. The MIC was determined by a colorimetric method using the Microbial Viability Assay Kit-WST (Dojindo, Kumamoto, Japan) according to the manufacturer’s manual and the Clinical and Laboratory Standards Institute (CLSI) guidelines (2018). Four colonies of each bacterium were inoculated into 5 mL of Luria-Bertani (LB) broth medium (BD Bioscience, Franklin Lakes, NJ, USA) or brain heart infusion broth (BHIB; BD Bioscience) at 37 °C for 6 h with shaking at 220 rpm. E. faecalis and streptococci were cultured in BHIB because of their slow growth, whereas all other bacteria were cultured in LB medium. The cells were washed by sterile saline (0.9% NaCl) twice and adjusted in a single well of a 96-well plate at a cell density of 1.5 × 10^5 CFU/well in accordance with 0.5 McFarland standard. Subsequently, 180 µL/well of fresh Mueller-Hinton broth (MHB; BD Bioscience), except for E. faecalis and streptococci using BHIB was added to the plate using BHIB. Final concentrations of 1–40 µg/mL (0.3–19.3 μM) of each peptide and reference antibiotic were added to each well. The plates were then incubated at 37 °C for 6 h. Subsequently, 10 µL of the coloring reagent was added, and the mixture was incubated at 37 °C for 2 h. The absorbance of each well was measured at 450 nm using a microplate spectrophotometer (Bio-Rad, xMark spectrophotometer, Hercules, CA, USA). MIC values were determined when the difference in the absorbance values between treatments and blanks (media and coloring reagent only) was less than 0.05. Experiments were performed in triplicate.

[2] = system: HaCaT cells; assay: In vitro cytotoxicity assay, WST-1 cell viability; assay type: cell-based, Human
Protocol: HaCaT cells were cultured in Dulbecco’s modified Eagle’s medium (DMEM; Hyclone^TM, Logan, UT, USA) with 10% fetal bovine serum (FBS; Hyclone^TM) and 1% penicillin/streptomycin (Pen-Strep; Hyclone^TM) up to 80% confluence at 37 ℃ and 5% CO2. Cells were detached from the plate by adding 0.25% trypsin-EDTA solution (Gibco^TM; Carlsbad, CA, USA). In a 96-well plate, 2 × 10^4 cells were seeded per well and cultured for 24 h. Subsequently, the medium was replaced with 100 μL DMEM (Hyclone^TM) containing 10% heat-inactivated FBS. Peptides were added to each well at concentrations of 64 μg/mL and 160 μg/mL. As references for complete cell lysis, 64 μg/mL melittin (Sigma-Aldrich) and Triton X-100 (Sigma-Aldrich) were used. Untreated cells were used as negative controls. After 24 h incubation at 37 ℃ and 5 % CO2, 10 μL of coloring solution (Cell Proliferation Reagent WST-1^TM; Sigma Aldrich) was added to each well according to the manufacturer’s instructions. The absorbance at 450 nm (treated group and control) and 650 nm (background) was measured in each well using a microplate reader (xMarkTM spectrophotometer; Bio-Rad). The cell viability was calculated using the following equation. All experiments were performed in triplicate. Cell viability (%) = 100 × (OD (treated group) − OD(Background))/(OD (negative control) − OD (Background))(2)

[3] = system: Pseudomonas aeruginosa ATCC 27853; assay: microbe, parasite or virus in culture; assay type: cell-based; settings: MHB; for Minimum Inhibitory Concentration: Microbial Viability Assay Kit-WST, 1.5 × 10^5 CFU/well, 37 °C 6 h + 2 h coloring reagent, A450, triplicate; for MIC: Pseudomonas aeruginosa, ATCC27853, value in brackets, WST colorimetric, 37 °C 6 h + 2 h, triplicate, read-out: Minimum Inhibitory Concentration
Protocol: as §1

[4] = system: Salmonella enterica serovar Typhimurium ATCC 14028; assay: microbe, parasite or virus in culture; assay type: cell-based; settings: MHB; for Minimum Inhibitory Concentration: Microbial Viability Assay Kit-WST, 1.5 × 10^5 CFU/well, 37 °C 6 h + 2 h coloring reagent, A450, triplicate; for MIC: Salmonella enterica, value in brackets, WST colorimetric, 37 °C 6 h + 2 h, triplicate, read-out: Minimum Inhibitory Concentration
Protocol: as §1

[5] = system: Acinetobacter baumannii KCTC 23254; assay: microbe, parasite or virus in culture; assay type: cell-based; settings: MHB; for MIC: Acinetobacter baumannii, KCTC23254, value in brackets, WST colorimetric, 37 °C 6 h + 2 h, triplicate, read-out: Minimum Inhibitory Concentration; for Minimum Inhibitory Concentration: Microbial Viability Assay Kit-WST, 1.5 × 10^5 CFU/well, 37 °C 6 h + 2 h coloring reagent, A450, triplicate
Protocol: as §1

[6] = system: Bacillus cereus ATCC 10876; assay: microbe, parasite or virus in culture; assay type: cell-based; settings: MHB; for MIC: Bacillus cereus, ATCC10876, value in brackets, WST colorimetric, 37 °C 6 h + 2 h, triplicate, read-out: Minimum Inhibitory Concentration; for Minimum Inhibitory Concentration: Microbial Viability Assay Kit-WST, 1.5 × 10^5 CFU/well, 37 °C 6 h + 2 h coloring reagent, A450, triplicate
Protocol: as §1

[7] = system: Staphylococcus aureus ATCC 6538; assay: microbe, parasite or virus in culture; assay type: cell-based; settings: MHB; for Minimum Inhibitory Concentration: Microbial Viability Assay Kit-WST, 1.5 × 10^5 CFU/well, 37 °C 6 h + 2 h coloring reagent, A450, triplicate; for MIC: Staphylococcus aureus, ATCC6538, value in brackets, WST colorimetric, 37 °C 6 h + 2 h, triplicate, read-out: Minimum Inhibitory Concentration
Protocol: as §1

[8] = system: Escherichia coli ATCC 25922; assay: microbe, parasite or virus in culture; assay type: cell-based; settings: MHB; for MIC: Escherichia coli, ATCC25922, 8 h, value in brackets, WST colorimetric, 37 °C 6 h + 2 h, triplicate, read-out: Minimum Inhibitory Concentration; for Minimum Inhibitory Concentration: Microbial Viability Assay Kit-WST, 1.5 × 10^5 CFU/well, 37 °C 6 h + 2 h coloring reagent, A450, triplicate
Protocol: as §1

[9] = system: Enterobacter cloacae subsp. cloacae ATCC 13047; assay: microbe, parasite or virus in culture; assay type: cell-based; settings: MHB; for MIC: Enterobacter cloacae, ATCC13047, value in brackets, WST colorimetric, 37 °C 6 h + 2 h, triplicate, read-out: Minimum Inhibitory Concentration; for Minimum Inhibitory Concentration: Microbial Viability Assay Kit-WST, 1.5 × 10^5 CFU/well, 37 °C 6 h + 2 h coloring reagent, A450, triplicate
Protocol: as §1

[10] = system: Streptococcus dysgalactiae ATCC 27957; assay: microbe, parasite or virus in culture; assay type: cell-based; settings: BHIB; for Minimum Inhibitory Concentration: Microbial Viability Assay Kit-WST, 1.5 × 10^5 CFU/well, 37 °C 6 h + 2 h coloring reagent, A450, triplicate; for MIC: Streptococcus dysgalactiae, ATCC27957, value in brackets, WST colorimetric, 37 °C 6 h + 2 h, triplicate, read-out: Minimum Inhibitory Concentration
Protocol: as §1

[11] = system: Klebsiella pneumoniae subsp. pneumoniae KCTC 1726; assay: microbe, parasite or virus in culture; assay type: cell-based; settings: MHB; for MIC: Klebsiella pneumoniae, KCTC1726, read-out: Minimum Inhibitory Concentration
Protocol: as §1

[12] = system: Streptococcus agalactiae ATCC 27956; assay: microbe, parasite or virus in culture; assay type: cell-based; settings: BHIB; for Minimum Inhibitory Concentration: Microbial Viability Assay Kit-WST, 1.5 × 10^5 CFU/well, 37 °C 6 h + 2 h coloring reagent, A450, triplicate; for MIC: Streptococcus agalactiae, ATCC27956, value in brackets, WST colorimetric, 37 °C 6 h + 2 h, triplicate, read-out: Minimum Inhibitory Concentration
Protocol: as §1

[13] = system: Streptococcus equi subsp. zooepidemicus ATCC 43079; assay: microbe, parasite or virus in culture; assay type: cell-based; settings: BHIB; for Minimum Inhibitory Concentration: Microbial Viability Assay Kit-WST, 1.5 × 10^5 CFU/well, 37 °C 6 h + 2 h coloring reagent, A450, triplicate; for MIC: Streptococcus equi, ATCC43079, value in brackets, WST colorimetric, 37 °C 6 h + 2 h, triplicate, read-out: Minimum Inhibitory Concentration
Protocol: as §1

[14] = system: Enterococcus faecalis ATCC 29212; assay: microbe, parasite or virus in culture; assay type: cell-based; settings: BHIB; for MIC: Enterococcus faecalis, ATCC29212, value in brackets, WST colorimetric, 37 °C 6 h + 2 h, triplicate, read-out: Minimum Inhibitory Concentration; for Minimum Inhibitory Concentration: Microbial Viability Assay Kit-WST, 1.5 × 10^5 CFU/well, 37 °C 6 h + 2 h coloring reagent, A450, triplicate
Protocol: as §1

[15] = value in brackets, WST colorimetric, 37 °C 6 h + 2 h, triplicate
[16] = Microbial Viability Assay Kit-WST, 1.5 × 10^5 CFU/well, 37 °C 6 h + 2 h coloring reagent, A450, triplicate

| Compound | MIC, range over strains [1] | Minimum Inhibitory Concentration [3] | MIC [3] | Minimum Inhibitory Concentration [4] | MIC [4] | MIC [5] | Minimum Inhibitory Concentration [5] | MIC [6] | Minimum Inhibitory Concentration [6] | Minimum Inhibitory Concentration [7] | MIC [7] | MIC [8] | Minimum Inhibitory Concentration [8] | MIC [9] | Minimum Inhibitory Concentration [9] | Minimum Inhibitory Concentration [10] | MIC [10] | MIC [11, 15] | Minimum Inhibitory Concentration [12] | MIC [12] | further results |
| --- | --- | --- | --- | --- | --- | --- | --- | --- | --- | --- | --- | --- | --- | --- | --- | --- | --- | --- | --- | --- | --- |
| ILGPALRIGGRIAGRIAGKLIGDAINRHRERNRQRRG [PD-CATH] | 0.7 to 7.3 µM |  |  |  |  |  |  |  |  |  |  |  |  |  |  |  |  |  |  |  | concentration at which the viability of human keratinocyte was affected [2]: 160 µg/mL |
| ILGRLRDLLRRGGRKIGQGLERIGQRIQGFFSNREPMEES [HA-CATH] | 1.1 to 7.3 µM |  |  |  |  |  |  |  |  |  |  |  |  |  |  |  |  |  |  |  |  |
| CC1(C)S[C@@H]2[C@H](NC(=O)[C@H](N)c3ccccc3)C(=O)N2[C@H]1C(=O)O [Ampicillin] |  | > 640 µg/mL | > 1830 µM | > 80 µg/mL | > 229 µM | > 229 µM | > 80 µg/mL | 229 µM | 80 µg/mL | 2 µg/mL | 5.7 µM | 14.3 µM | 5 µg/mL | > 229 µM | > 80 µg/mL | 2 µg/mL | 5.7 µM | > 229 µM | 4 µg/mL | 11.4 µM | Minimum Inhibitory Concentration [11, 16]: > 80 µg/mL; Minimum Inhibitory Concentration [13]: 2 µg/mL; MIC [13]: 5.7 µM; MIC [14]: 28.6 µM; Minimum Inhibitory Concentration [14]: 10 µg/mL |
| GIFILKHRRPIGRGIEIT [ΔML-CATH] |  |  |  |  |  |  |  |  |  |  |  |  |  |  |  |  |  |  |  |  | MIC (no observable antibacterial activity) [1]: > 13.7 µM |
| Triton X-100 |  |  |  |  |  |  |  |  |  |  |  |  |  |  |  |  |  |  |  |  | Cell Viability ± SD [2]: 8.9 ± 0.05 % |
| IAGRIAGKLIGDAINRHRERNRQRR [ΔPD-CATH] |  |  |  |  |  |  |  |  |  |  |  |  |  |  |  |  |  |  |  |  | MIC (no observable antibacterial activity) [1]: > 13.7 µM |
| O=C(N[C@H](CO)[C@H](O)c1ccc([N+](=O)[O-])cc1)C(Cl)Cl [chloramphenicol] |  | 80 µg/mL | 248 µM | 5 µg/mL | 15.5 µM | 118 µM | 38 µg/mL | 31 µM | 10 µg/mL | 7.5 µg/mL | 23.2 µM | 9.3 µM | 3 µg/mL | 15.5 µM | 5 µg/mL | 4 µg/mL | 12.4 µM | > 248 µM | 5 µg/mL | 15.5 µM | Minimum Inhibitory Concentration [11, 16]: > 80 µg/mL; Minimum Inhibitory Concentration [13]: 5 µg/mL; MIC [13]: 15.5 µM; MIC [14]: 31 µM; Minimum Inhibitory Concentration [14]: 10 µg/mL |
| CNC(C)C1CCC(N)C(OC2C(N)CC(N)C(OC3OCC(C)(O)C(NC)C3O)C2O)O1 (stereo not drawn) [Gentamicin, gentamicin sulfate] |  | 1 µg/mL | 2.1 µM | 1 µg/mL | 2.1 µM | 21 µM | 10 µg/mL | 2.1 µM | 1 µg/mL | 1 µg/mL | 2.1 µM | 2.1 µM | 1 µg/mL | 2.1 µM | 1 µg/mL | 15 µg/mL | 31.5 µM | 39.8 µM | 75 µg/mL | 158 µM | MIC [11, 16]: 19 µg/mL; Minimum Inhibitory Concentration [13]: 45 µg/mL; MIC [13]: 94.5 µM; MIC [14]: 189 µM; Minimum Inhibitory Concentration [14]: 90 µg/mL |
| LNPLIKAGIFILKHRRPIGRGIEITGRGIKKFFSK [ML-CATH] | 0.3 to 8.8 µM |  |  |  |  |  |  |  |  |  |  |  |  |  |  |  |  |  |  |  | MICs, range [1]: 0.5 to 0.8 µM |
| LLRRGGRKIGQGLERIGQRIQGF [ΔHA-CATH] |  |  |  |  |  |  |  |  |  |  |  |  |  |  |  |  |  |  |  |  | MIC (no observable antibacterial activity) [1]: > 13.7 µM |

Reference: article PMC9330922, “Genomewide Analysis and Biological Characterization of Cathelicidins with Potent Antimicrobial Activity and Low Cytotoxicity from Three Bat Species” (Antibiotics, 2022)
